The logP is the decadic logarithm of the partition coefficient of the neutral form, usually between octanol and water.

Turning to `O=C1c2c(O)cccc2C(SCC(O)CO)c2cccc(O)c21` (stereo not given), the logP amounted to 2.73. As to `CCCSC1c2cccc(O)c2C(=O)c2c(O)cccc21`, the logP was found to be 4.57. Regarding `COc1ccc(SC2c3cccc(O)c3C(=O)c3c(O)cccc32)cc1`, the logP was determined as 4.51. The compound `CCOC(=O)CSC1c2cccc(O)c2C(=O)c2c(O)cccc21` returned a logP of 4.45. Turning to `O=C1c2c(O)cccc2C(Sc2ccccc2)c2cccc(O)c21`, the logP was 4.54. `O=C1c2c(O)cccc2C(Sc2ccccc2O)c2cccc(O)c21` yielded a logP of 3.92. On to `COc1ccccc1SC1c2cccc(O)c2C(=O)c2c(O)cccc21`, for which the logP stood at 4.42. With `O=C(O)CSC1c2cccc(O)c2C(=O)c2c(O)cccc21`, the logP amounted to 2.35. `COc1cccc(SC2c3cccc(O)c3C(=O)c3c(O)cccc32)c1`: the logP was found to be 4.5.

In turn, `COc1ccc(CSC2c3cccc(O)c3C(=O)c3c(O)cccc32)cc1` registered a logP of 4.83. In turn, `O=C1c2c(O)cccc2C(SCCO)c2cccc(O)c21` came in with a logP of 3.16. For `COC(=O)CSC1c2cccc(O)c2C(=O)c2c(O)cccc21`, the logP was 3.53.

As for `CC(SC1c2cccc(O)c2C(=O)c2c(O)cccc21)C(=O)O` (stereo not given), the logP was 2.77. `O=C(O)CCSC1c2cccc(O)c2C(=O)c2c(O)cccc21` gave a logP of 3. `CCOC(=O)CCSC1c2cccc(O)c2C(=O)c2c(O)cccc21` showed a logP of 4.59.

For the compound `O=C1c2c(O)cccc2C(SCCCc2ccccc2)c2cccc(O)c21`, the logP amounted to 4.78. As to `O=C1c2c(O)cccc2C(Sc2ccc(O)cc2)c2cccc(O)c21`, the logP turned out to be 3.69. `O=C1c2c(O)cccc2C(SCCc2ccccc2)c2cccc(O)c21` returned a logP of 4.97. Under `CCCCOC(=O)CSC1c2cccc(O)c2C(=O)c2c(O)cccc21` stands 4.41; under `O=C1c2c(O)cccc2C(SCc2ccccc2)c2cccc(O)c21`, 4.87.

In turn, `Nc1ccc(SC2c3cccc(O)c3C(=O)c3c(O)cccc32)cc1` returned a logP of 3.65. Under `O=C1c2c(O)cccc2C(SCCCS)c2cccc(O)c21` stands 4.33; under `Nc1ccccc1SC1c2cccc(O)c2C(=O)c2c(O)cccc21`, 4.05; under `CCCCOC(=O)CCSC1c2cccc(O)c2C(=O)c2c(O)cccc21`, 4.55. In the case of `CCSC1c2cccc(O)c2C(=O)c2c(O)cccc21`, the logP amounted to 2.97.

The record behind these values is the SangsterLogP compilation.
